Patent US20030109567A1, “Novel angiogenesis inhibitor” (RIKEN, priority 2001, published 2003)

Test: Solubility (physicochemical properties)
Protocol: The syrup was dissolved in chloroform 10 ml and applied to a silica gel column charged with chloroform (4 cm diameter, 60 cm length). Initially, elution was performed with chloroform 500 ml, then with each 500 ml of a chloroform/methanol solution having a successively changed mixing ratio (100:0, 100:2, 50:1, 20:1, 10:1, 5:1, 1:1). The compound of the present invention, RKB-3134A, was eluted in a fraction with the chloroform/methanol solution (50:1). The fraction was concentrated under reduced pressure to give a brown syrup 1.4 g. Then, the brown syrup 1.4 g was dissolved in a methanol/acetonitrile solution (1:1, 14 ml) and made into aliquots, and purified by high performance liquid chromatography (acetonitrile : water=2:8→acetonitrile : water=1:1; linear gradient (30 minutes), flow rate 9.0 ml/min) using a reverse phase ODS column (2 cm diameter, 25 cm length, PEGASIL ODS, Senshu Kagaku Co.) to give RKB-3134A. Recrystallization was further carried out from a mixed solvent of hexane/ethyl acetate/methanol to give a pure RKB-3134A (90 mg) as pale yellow powder. Physicochemical properties of RKB-3134A are shown below.
Insoluble in n-hexane or water.

With `CC/C=C/C=C/C1=C(C)C(=O)C2(O1)C(=O)NC(O)(Cc1ccccc1)C2O` (centres unmarked) [RKB-3134A] the “Solubility in methanol, acetone, or dimethyl sulfoxide” value (solvent: methanol, acetone, or dimethyl sulfoxide) was “easily soluble” and the “Solubility in n-hexane or water” value (solvent: n-hexane or water) was “Insoluble”.
